Assays:
[1] = molecular target: T1, D(1A) dopamine receptor (Homo sapiens, UniProt P21728)
Description: Inhibition of D1 receptor (unknown origin)

[2] = molecular target: T2, D(2) dopamine receptor (Homo sapiens, UniProt P14416)
Description: Inhibition of D2 receptor (unknown origin)

[3] = molecular target: T2, D(2) dopamine receptor; remark: listed apart in the source
[4] = molecular target: T2, D(2) dopamine receptor; remark: listed apart in the source
[5] = molecular target: T2, D(2) dopamine receptor; remark: listed apart in the source
Description: Antagonist activity at D2 receptor (unknown origin)

[6] = molecular target: T3, Alpha-1A adrenergic receptor (Homo sapiens, UniProt P35348)
T3 sequence (P35348 whole entry): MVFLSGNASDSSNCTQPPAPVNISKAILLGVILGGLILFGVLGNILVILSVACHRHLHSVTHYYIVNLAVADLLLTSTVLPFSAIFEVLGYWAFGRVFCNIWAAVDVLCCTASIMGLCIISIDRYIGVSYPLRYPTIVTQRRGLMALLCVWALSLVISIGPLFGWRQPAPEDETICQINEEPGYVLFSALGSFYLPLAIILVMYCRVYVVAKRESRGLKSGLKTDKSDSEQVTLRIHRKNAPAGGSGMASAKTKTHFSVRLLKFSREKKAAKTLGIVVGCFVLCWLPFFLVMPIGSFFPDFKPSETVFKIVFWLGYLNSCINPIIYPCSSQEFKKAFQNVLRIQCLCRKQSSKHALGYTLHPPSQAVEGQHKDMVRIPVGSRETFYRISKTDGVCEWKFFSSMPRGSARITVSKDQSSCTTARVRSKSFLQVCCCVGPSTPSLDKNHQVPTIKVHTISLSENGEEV
Description: Binding affinity to alpha1A adrenergic receptor (unknown origin) assessed as inhibition constant

[7] = molecular target: T1, D(1A) dopamine receptor; remark: listed apart in the source
Description: Binding affinity to D1 receptor (unknown origin) assessed as inhibition constant

[8] = molecular target: T2, D(2) dopamine receptor; remark: listed apart in the source
Description: Binding affinity to D2L receptor (unknown origin) assessed as inhibition constant

[9] = molecular target: T2, D(2) dopamine receptor; remark: listed apart in the source
Description: Binding affinity to D2 receptor (unknown origin) assessed as inhibition constant

[10] = molecular target: T4, D(4) dopamine receptor (Homo sapiens, UniProt P21917)
T4 sequence (P21917 whole entry): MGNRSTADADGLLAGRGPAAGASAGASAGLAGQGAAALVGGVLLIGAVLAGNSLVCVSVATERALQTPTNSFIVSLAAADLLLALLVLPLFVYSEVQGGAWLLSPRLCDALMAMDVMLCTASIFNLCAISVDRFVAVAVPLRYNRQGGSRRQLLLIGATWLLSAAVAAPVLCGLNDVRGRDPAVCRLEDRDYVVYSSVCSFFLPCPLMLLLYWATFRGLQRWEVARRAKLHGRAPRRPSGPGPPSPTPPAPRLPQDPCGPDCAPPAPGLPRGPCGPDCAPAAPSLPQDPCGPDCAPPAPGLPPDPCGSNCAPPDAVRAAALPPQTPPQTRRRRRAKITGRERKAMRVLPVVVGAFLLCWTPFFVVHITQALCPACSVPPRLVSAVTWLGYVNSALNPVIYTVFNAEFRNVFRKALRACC
Description: Binding affinity to D4 receptor (unknown origin) assessed as inhibition constant

[11] = molecular target: T5, D(3) dopamine receptor (Homo sapiens, UniProt P35462)
T5 sequence (P35462 whole entry): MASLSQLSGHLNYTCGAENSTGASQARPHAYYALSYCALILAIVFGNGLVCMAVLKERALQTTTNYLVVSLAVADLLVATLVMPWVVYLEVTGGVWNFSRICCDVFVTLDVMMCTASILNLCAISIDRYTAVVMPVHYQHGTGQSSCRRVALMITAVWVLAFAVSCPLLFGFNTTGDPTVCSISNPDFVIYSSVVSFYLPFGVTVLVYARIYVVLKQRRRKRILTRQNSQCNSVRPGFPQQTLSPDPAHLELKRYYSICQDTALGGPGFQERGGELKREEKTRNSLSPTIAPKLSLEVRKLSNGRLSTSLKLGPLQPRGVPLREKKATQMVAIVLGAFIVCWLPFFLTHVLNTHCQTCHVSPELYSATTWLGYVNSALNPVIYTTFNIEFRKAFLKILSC
Description: Inhibition of D3 receptor (unknown origin)

[12] = molecular target: Vasopressin V1a receptor (Homo sapiens, UniProt P37288)
Chain of Vasopressin V1a receptor (P37288 whole entry): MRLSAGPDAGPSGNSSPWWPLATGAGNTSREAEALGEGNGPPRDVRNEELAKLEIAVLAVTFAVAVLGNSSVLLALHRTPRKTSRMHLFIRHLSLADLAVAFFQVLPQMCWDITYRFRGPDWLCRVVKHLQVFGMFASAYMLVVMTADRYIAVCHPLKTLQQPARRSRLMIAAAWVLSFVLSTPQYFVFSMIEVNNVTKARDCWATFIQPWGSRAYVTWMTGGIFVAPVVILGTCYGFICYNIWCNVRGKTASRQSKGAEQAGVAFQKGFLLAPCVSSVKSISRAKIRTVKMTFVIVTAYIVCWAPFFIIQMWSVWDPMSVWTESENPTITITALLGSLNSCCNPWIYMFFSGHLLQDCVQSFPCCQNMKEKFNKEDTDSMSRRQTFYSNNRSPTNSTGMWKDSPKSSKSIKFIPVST
Description: Inhibition of Vasopressin V1A receptor (unknown origin)

[13] = molecular target: T6, Amine oxidase [flavin-containing] B (Homo sapiens, UniProt P27338)
T6 sequence (P27338 whole entry): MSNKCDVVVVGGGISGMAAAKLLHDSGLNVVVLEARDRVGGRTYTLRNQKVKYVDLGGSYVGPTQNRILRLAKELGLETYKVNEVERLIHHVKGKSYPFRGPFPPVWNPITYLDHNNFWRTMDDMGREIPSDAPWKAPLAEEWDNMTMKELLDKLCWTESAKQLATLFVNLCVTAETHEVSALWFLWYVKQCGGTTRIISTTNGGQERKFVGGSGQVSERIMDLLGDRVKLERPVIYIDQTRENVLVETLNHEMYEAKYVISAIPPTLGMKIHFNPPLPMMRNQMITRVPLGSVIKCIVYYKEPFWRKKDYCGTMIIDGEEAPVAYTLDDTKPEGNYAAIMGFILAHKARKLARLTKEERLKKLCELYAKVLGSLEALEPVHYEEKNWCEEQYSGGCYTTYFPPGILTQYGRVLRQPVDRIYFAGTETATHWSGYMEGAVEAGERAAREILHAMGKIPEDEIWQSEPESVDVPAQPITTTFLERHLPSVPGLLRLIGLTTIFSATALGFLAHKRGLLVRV
Description: Inhibition of MAO-B (unknown origin) measured by MAO-GloTM method

[14] = molecular target: T7, Amine oxidase [flavin-containing] A (Homo sapiens, UniProt P21397)
T7 sequence (P21397 whole entry): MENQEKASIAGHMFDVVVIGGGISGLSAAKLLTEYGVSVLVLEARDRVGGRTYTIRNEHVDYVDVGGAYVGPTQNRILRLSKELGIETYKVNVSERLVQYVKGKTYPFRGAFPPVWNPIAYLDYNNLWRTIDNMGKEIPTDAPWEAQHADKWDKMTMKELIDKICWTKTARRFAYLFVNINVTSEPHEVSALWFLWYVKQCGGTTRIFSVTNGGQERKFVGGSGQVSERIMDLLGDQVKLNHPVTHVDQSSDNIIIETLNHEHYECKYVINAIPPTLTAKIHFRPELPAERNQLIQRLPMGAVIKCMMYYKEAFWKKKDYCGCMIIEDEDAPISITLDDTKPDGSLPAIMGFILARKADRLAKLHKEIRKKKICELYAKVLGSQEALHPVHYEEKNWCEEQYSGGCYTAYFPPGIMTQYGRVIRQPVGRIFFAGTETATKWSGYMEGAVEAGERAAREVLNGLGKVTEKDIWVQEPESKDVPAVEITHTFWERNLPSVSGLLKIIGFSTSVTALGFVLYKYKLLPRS
Description: Inhibition of MAO-A (unknown origin) measured by MAO-GloTM method

[15] = molecular target: T4, D(4) dopamine receptor; remark: listed apart in the source
Description: Inhibition of D4 receptor (unknown origin)

[16] = molecular target: 5-hydroxytryptamine receptor 7 (Homo sapiens, UniProt P34969)
Chain of 5-hydroxytryptamine receptor 7 (P34969 whole entry): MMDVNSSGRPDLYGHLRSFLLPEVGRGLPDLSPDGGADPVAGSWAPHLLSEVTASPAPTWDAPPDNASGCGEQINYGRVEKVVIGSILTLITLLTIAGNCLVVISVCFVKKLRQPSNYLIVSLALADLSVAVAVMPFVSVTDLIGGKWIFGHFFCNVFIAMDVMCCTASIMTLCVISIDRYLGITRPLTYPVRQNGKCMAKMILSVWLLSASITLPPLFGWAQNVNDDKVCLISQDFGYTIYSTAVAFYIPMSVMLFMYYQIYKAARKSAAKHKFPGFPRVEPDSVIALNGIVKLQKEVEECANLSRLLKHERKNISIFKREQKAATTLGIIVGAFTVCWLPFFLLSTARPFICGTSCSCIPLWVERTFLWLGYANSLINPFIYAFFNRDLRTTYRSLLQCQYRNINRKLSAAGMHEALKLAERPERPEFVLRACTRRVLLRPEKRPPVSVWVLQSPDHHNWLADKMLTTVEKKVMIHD
Description: Binding affinity to 5HT7 receptor (unknown origin) assessed as inhibition constant

[17] = molecular target: T8, 5-hydroxytryptamine receptor 2C (Homo sapiens, UniProt P28335)
T8 sequence (P28335 whole entry): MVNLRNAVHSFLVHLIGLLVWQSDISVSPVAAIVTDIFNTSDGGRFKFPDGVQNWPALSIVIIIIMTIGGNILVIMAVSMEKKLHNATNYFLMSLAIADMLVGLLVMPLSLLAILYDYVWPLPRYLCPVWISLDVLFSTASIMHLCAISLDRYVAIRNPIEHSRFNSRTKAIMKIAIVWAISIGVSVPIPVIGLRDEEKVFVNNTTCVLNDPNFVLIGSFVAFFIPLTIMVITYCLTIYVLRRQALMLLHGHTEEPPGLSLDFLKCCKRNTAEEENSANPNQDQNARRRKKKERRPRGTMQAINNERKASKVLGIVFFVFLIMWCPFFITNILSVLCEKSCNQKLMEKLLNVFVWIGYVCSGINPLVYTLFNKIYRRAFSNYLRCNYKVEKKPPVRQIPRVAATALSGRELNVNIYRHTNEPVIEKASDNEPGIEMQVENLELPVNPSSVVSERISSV
Description: Binding affinity to 5HT2C receptor (unknown origin) assessed as inhibition constant

[18] = molecular target: T5, D(3) dopamine receptor; remark: listed apart in the source
Description: Binding affinity to D3 receptor (unknown origin) assessed as inhibition constant

[19] = molecular target: 5-hydroxytryptamine receptor 2A (Homo sapiens, UniProt P28223)
Chain of 5-hydroxytryptamine receptor 2A (P28223 whole entry): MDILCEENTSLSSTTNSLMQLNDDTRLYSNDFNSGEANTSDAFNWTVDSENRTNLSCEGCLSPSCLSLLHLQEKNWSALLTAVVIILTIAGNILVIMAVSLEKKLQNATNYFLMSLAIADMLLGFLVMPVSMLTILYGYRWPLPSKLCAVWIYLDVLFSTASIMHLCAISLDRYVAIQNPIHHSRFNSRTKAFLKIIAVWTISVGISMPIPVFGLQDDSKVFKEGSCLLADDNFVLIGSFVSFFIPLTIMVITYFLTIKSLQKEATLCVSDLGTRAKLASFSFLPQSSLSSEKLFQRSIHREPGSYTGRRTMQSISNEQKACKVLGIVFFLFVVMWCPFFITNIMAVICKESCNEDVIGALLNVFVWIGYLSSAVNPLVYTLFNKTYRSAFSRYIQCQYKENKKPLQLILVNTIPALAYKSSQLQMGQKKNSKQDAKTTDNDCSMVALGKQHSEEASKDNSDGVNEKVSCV
Description: Binding affinity to 5HT2A (unknown origin) assessed as inhibition constant

[20] = molecular target: 5-hydroxytryptamine receptor 1D (Homo sapiens, UniProt P28221)
Chain of 5-hydroxytryptamine receptor 1D (P28221 whole entry): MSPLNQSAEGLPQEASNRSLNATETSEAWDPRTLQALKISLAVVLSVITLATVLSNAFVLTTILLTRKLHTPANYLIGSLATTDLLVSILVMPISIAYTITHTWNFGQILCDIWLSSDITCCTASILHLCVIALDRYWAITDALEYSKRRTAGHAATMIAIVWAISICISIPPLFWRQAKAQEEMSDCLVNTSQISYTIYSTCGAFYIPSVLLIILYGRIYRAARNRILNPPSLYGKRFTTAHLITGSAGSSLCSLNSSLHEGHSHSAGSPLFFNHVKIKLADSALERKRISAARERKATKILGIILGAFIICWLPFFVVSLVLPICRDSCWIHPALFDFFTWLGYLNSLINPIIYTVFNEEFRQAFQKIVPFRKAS
Description: Binding affinity to 5HT1D receptor (unknown origin) assessed as inhibition constant

[21] = molecular target: 5-hydroxytryptamine receptor 1B (Homo sapiens, UniProt P28222)
Chain of 5-hydroxytryptamine receptor 1B (P28222 whole entry): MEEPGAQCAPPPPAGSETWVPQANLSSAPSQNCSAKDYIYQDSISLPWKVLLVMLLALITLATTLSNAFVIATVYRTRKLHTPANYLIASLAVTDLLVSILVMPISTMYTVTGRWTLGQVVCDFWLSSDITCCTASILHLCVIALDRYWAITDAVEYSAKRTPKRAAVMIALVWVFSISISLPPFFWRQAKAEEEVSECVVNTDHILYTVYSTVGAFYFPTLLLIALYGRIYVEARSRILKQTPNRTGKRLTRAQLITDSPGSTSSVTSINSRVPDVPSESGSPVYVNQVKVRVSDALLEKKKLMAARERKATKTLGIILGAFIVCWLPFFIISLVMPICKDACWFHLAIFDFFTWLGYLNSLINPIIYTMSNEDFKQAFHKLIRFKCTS
Description: Binding affinity to 5HT1B receptor (unknown origin) assessed as inhibition constant

[22] = molecular target: T9, Alpha-2C adrenergic receptor (Homo sapiens, UniProt P18825)
T9 sequence (P18825 whole entry): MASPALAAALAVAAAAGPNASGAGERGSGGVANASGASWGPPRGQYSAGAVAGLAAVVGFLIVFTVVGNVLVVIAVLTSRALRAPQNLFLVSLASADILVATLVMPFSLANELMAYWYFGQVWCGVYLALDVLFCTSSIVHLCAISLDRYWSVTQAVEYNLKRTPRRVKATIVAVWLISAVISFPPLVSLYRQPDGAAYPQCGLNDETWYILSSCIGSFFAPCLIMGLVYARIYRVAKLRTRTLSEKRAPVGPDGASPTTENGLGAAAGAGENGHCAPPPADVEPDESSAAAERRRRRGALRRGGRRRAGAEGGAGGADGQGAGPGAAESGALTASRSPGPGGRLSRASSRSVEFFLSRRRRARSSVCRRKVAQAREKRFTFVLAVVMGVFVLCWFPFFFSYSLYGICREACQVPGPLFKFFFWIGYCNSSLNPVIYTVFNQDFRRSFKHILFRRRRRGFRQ
Description: Binding affinity to alpha2C adrenergic receptor (unknown origin) assessed as inhibition constant

T2 sequence (P14416 whole entry): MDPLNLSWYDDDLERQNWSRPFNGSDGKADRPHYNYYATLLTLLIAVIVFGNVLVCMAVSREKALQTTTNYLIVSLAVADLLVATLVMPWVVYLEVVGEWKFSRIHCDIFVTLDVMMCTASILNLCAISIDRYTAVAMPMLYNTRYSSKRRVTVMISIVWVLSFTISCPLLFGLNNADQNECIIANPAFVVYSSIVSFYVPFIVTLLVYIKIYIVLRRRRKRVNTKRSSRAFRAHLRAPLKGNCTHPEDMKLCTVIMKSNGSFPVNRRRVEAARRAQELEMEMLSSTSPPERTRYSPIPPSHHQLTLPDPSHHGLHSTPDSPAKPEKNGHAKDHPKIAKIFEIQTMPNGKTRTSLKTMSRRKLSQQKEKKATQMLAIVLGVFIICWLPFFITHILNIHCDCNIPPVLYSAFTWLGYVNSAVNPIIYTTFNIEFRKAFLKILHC
T1 sequence (P21728 whole entry): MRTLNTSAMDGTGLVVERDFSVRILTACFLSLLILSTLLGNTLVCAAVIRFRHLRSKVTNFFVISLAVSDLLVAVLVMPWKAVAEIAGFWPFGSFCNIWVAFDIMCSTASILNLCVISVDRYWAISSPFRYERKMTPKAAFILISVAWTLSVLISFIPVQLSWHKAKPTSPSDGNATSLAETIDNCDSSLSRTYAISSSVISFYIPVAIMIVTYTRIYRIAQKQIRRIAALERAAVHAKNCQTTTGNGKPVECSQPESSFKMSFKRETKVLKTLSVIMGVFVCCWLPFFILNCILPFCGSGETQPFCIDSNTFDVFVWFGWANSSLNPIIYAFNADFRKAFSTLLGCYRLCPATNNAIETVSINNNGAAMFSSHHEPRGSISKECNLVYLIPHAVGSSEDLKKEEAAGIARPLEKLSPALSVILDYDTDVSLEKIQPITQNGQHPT

## COc1ccc(C[C@H]2c3cc(O)c(OC)cc3CCN2C)cc1O [(S)-RETICULINE]
[1]
  IC50: 1800 nM
[2]
  IC50: 470 nM

## C=C1CCC[C@]2(C)Cc3occ(C)c3C[C@@H]12 [ATRACTYLON]
[2]
  IC50: 2500 nM

## COc1ccc2cc3[n+](cc2c1OC)CCc1cc2c(cc1-3)OCO2 [BERBERINE CHLORIDE]
[3]
  IC50: 38600 nM
[4]
  IC50: 17100 nM

## COc1cc2c(cc1O)C[C@H]1c3c(cc(O)c(OC)c3-2)CCN1C [BOLDINE]
[5]
  IC50: 520 nM

## CC(C)C[C@H]1C(=O)N2CCC[C@H]2[C@]2(O)O[C@](NC(=O)[C@@H]3C=C4c5cccc6[nH]c(Br)c(c56)C[C@H]4N(C)C3)(C(C)C)C(=O)N12 [BROMOCRIPTINE]
[6]
  Ki: 18 nM
[7]
  Ki: 3420 nM

## C=CCN1C[C@H](C(=O)N(CCCN(C)C)C(=O)NCC)C[C@@H]2c3cccc4[nH]cc(c34)C[C@H]21 [CABERGOLINE]
[8]
  Ki: 0.36 nM
[7]
  Ki: 3800 nM
[9]
  Ki: 0.36 nM

## COc1cc2c(cc1O)Oc1c(O)ccc3c1[C@H](C2)N(C)CC3 [CELTISINE]
[1]
  IC50: 60 nM
[2]
  IC50: 30 nM

## OCCN1CCN(CCCN2c3ccccc3Sc3ccc(C(F)(F)F)cc32)CC1 [FLUPHENAZINE]
[10]
  Ki: 130 nM

## COc1cc2c(cc1OC)-c1c(OC)c(OC)cc3c1[C@H](C2)N(C)CC3 [GLAUCINE]
[5]
  IC50: 3020 nM

## O=C(/C=C/c1ccc(O)cc1)c1ccc(O)cc1O [ISOLIQUIRITIGENIN]
[11]
  IC50: 62300 nM
[12]
  IC50: 78600 nM

## O=c1cc(-c2ccc(O)c(O)c2)oc2cc(O)cc(O)c12 [LUTEOLIN]
[13]
  IC50: > 100000 nM
[14]
  IC50: 8570 nM
[15]
  IC50: 39600 nM
[12]
  IC50: 19500 nM

## Cc1nc2n(c(=O)c1CCN1CCC(c3noc4cc(F)ccc34)CC1)CCCC2O (stereo not drawn) [PALIPERIDONE]
[16]
  Ki: 6.8 nM
[17]
  Ki: 19 nM
[18]
  Ki: 7.5 nM
[19]
  Ki: 0.83 nM
[20]
  Ki: 7.3 nM
[21]
  Ki: 111 nM
[6]
  Ki: 11 nM
[22]
  Ki: 2.7 nM
[7]
  Ki: 554 nM
[9]
  Ki: 1.6 nM

## CCCN1C[C@H](CSC)C[C@@H]2c3cccc4[nH]cc(c34)C[C@H]21 [PERGOLIDE]
[6]
  Ki: 888 nM

## COc1cc2c(cc1O)[C@@H]1Cc3ccc(O)c(OC)c3CN1CC2 [STEPHOLIDINE]
[18]
  Ki: 23.4 nM
[10]
  Ki: 1450 nM
[7]
  Ki: 5.1 nM
[9]
  Ki: 11.6 nM

## COc1cc2c(cc1OC)[C@@H]1Cc3ccc(OC)c(OC)c3CN1CC2 [TETRAHYDROPALMATINE]
[7]
  Ki: 124 nM
[9]
  Ki: 388 nM
